# Measured values: patent US12043827B2, “Compositions, systems, and methods for base diversification” (Pairwise Plants Services, Inc., priority 2020, dated 2024)
# B1: thMPG: truncated variant of hMPG, SEQ ID NO:85, fused to ABE8.20m (protein, listed as Homo sapiens)
# chain: KGHLTRLGLEFFDQPAVPLARAFLGQVLVRRLPNGTELRGRIVETEAYLGPEDEAAHSRGGRQTPRNRGMFMKPGTLYVYIIYGMYFCMNISSQGDGACVLLRALEPLEGLETMRQLRSTLRKGTASRVLKDRELCSGPSKLCQALAINKSFDQRDLAQDEAVWLERGPLEPSEPAVVAAARVGVGHAGEWARKPLRFYVRGSPWVSVVDRVAEQDTQA
# Assays:
# Type in all cases: cell-based
# [1] = test system: HEK2 genomic site; assay: Adenine base editing with inosine glycosylases, HEK2 site (FIGS. 7A-7C); conditions: all conditions that used ABE
# Description: FIGS. 7A-7C are graphs showing adenine base editing results for a HEK2 genomic site. Adenines in the target window were diversified into cytosine and thymine. All conditions that used ABE generated ˜10-20% guanine mutation, as expected. FIG. 7A is a graph providing the results for inosine glycosylase fusion constructs. FIG. 7B is a graph providing the results for inosine glycosylases provided in trans and overexpressed in the cell. FIG. 7C is a graph showing the amount of indels generated by the constructs.
# (§1) Five different glycosylases from various species were selected for testing. The following genes were codon-optimized and cloned into a mammalian expression vector, either as unfused gene, or as a C-terminal fusion to ABE7.10 (species source in parenthesis); hMPG (Homo sapiens) having an amino acid sequence of SEQ ID NO:84, mMPG (Mus musculus) having an amino acid sequence of SEQ ID NO:83, rMPG (Rattus norvegicus) having an amino acid sequence of SEQ ID NO:80, SpThp1 (Schizosaccharomyces pombe) having an amino acid sequence of SEQ ID NO:79, MaHDG (Methanosarcina acetivorans) having an amino acid sequence of SEQ ID NO:81, and MbHDG (Methanosarcina barkeri) having an amino acid sequence of SEQ ID NO:82. […]
# [2] = test system: FANCF genomic site; assay: Adenine base editing with inosine glycosylases, FANCF site (FIGS. 8A-8C); conditions: all conditions that used ABE
# Description: FIGS. 8A-8C are graphs showing adenine base editing results for a FANCF genomic site. Adenines in the target window were diversified into cytosine and thymine. All conditions that used ABE generated ˜10-20% guanine mutation, as expected. FIG. 8A is a graph providing the results for inosine glycosylase for fusion constructs. FIG. 8B is a graph providing the results for inosine glycosylases provided in trans and overexpressed in the cell. […] is a graph showing the amount of indels generated by the constructs.
# as §1
# [3] = test system: endogenous loci; assay: Transversion mutations from adenine: ABE7.10 with inosine glycosylases (fusion or in trans), HTS in HEK293T cells; conditions: all conditions that used ABE7.10, 3 days
# Description: The experiment was designed to generate transversion mutations from adenines by promoting inosines to undergo the same cellular DNA repair pathways that generate transversion mutations during translesion-bypass polymerization in cytosine base editing. While not wishing to be bound to any particular theory, it was hypothesized that the key step was to facilitate the glycosylation of inosines generated during adenine base editing. It was hypothesized that once glycosylated, the resulting abasic site can be a substrate for translesion-bypass repair and that this would lead to transversion mutations. Exogenous inosine glycosylases were provided along with ABE to promote inosine glycosylation.
# Several inosine glycosylases were screened in HEK293T cells and it was determined whether they were capable of acting on inosines generated by ABE. If inosine is converted into an abasic site, and subsequently repaired through translesion-bypass polymerization, transversion mutations can be generated from adenines.
# Five different glycosylases from various species were selected for testing. The following genes were codon-optimized and cloned into a mammalian expression vector, either as unfused gene, or as a C-terminal fusion to ABE7.10 (species source in parenthesis); hMPG (Homo sapiens) having an amino acid sequence of SEQ ID NO:84, mMPG (Mus musculus) having an amino acid sequence of SEQ ID NO:83, rMPG (Rattus norvegicus) having an amino acid sequence of SEQ ID NO:80, SpThp1 (Schizosaccharomyces pombe) having an amino acid sequence of SEQ ID NO:79, MaHDG (Methanosarcina acetivorans) having an amino acid sequence of SEQ ID NO:81, and MbHDG (Methanosarcina barkeri) having an amino acid sequence of SEQ ID NO:82. […] The HEK293T cells were transfected with a plasmid encoding gRNA targeting endogenous loci and either the fusion plasmid or a mixture of plasmids expressing ABE7.10 and the above inosine glycosylases. After 3 days, high-throughput sequencing was used to determine the editing result of targeted adenines. Mock transfection (using pUC19) was used to set baseline editing. All conditions that used ABE7.10 generated 10-20% guanine transition, as expected.
# [4] = test system: spacer sequence corresponding to SEQ ID NO:131; assay: SunTag recruitment system for adenine base diversifier / reduced Cas9 binding affinity, HTS in HEK293T cells; conditions: scFv-TadA8.20m-GB1 or scFv-TadA8e-GB1, glycosylase overexpressed in trans, FIGS. 10 and 11
# Description: Different forms of Cas9 were expressed in HEK293T cells, which were: nCas9(D10A) (SEQ ID NO:36), dCas9-SunTag (SEQ ID NO:135), nCas9(D10A)-SunTag (SEQ ID NO:136), and enCas9(D10A)-SunTag (SEQ ID NO:137), along with a SunTag-antibody-fused adenine deaminase, with a GB1 solubility tag at the C-terminus, having a sequence of SEQ ID NO:138 or SEQ ID NO:139. An inosine glycosylase, which was hMPG (SEQ ID NO:84), mMPG (SEQ ID NO:83), or SpThp1 (SEQ ID NO:79) was overexpressed in trans. The glycosylase was not actively recruited, but was expressed in the cell at the same time as the Cas9 and deaminase.
# In an attempt to reduce the Cas9 DNA binding affinity to a target nucleic acid, Cas9 having mutated amino acid residues that may interact with the target nucleic acid were used. Without being limited to any particular theory, the thought was that this would facilitate the dissociation of Cas9 from the target nucleic acid once adenine is converted to inosine; thus, providing greater access for inosine glycosylase. Specifically, enCas9(D10A) (SEQ ID NO:39) contains two mutations that reduce DNA binding affinity compared to nCas9(D10A) (Halperin et al. Nature 2018 560(7717):248-252). The effect of the mutations in the context of SunTag-mediated adenine diversification were tested. […]
# After three days, the editing efficiency was measured by high throughput sequencing of targeted loci. […]
# [5] = test system: Sites 1-4 (SEQ ID NO:131-134); assay: Truncation of inosine glycosylase regulatory domain, hMPG vs thMPG fusions to ABE8.20m; conditions: N- and C-terminus fusions to ABE8.20m, four sites, FIG. 12
# Description: Methylpurine glycosylase (MPG) usually contains two domains. The catalytic domain of MPG is necessary for excising inosine from DNA (Hollis, Lau, Ellenberger. Mutation Research 2000, 460, 201-210). Without being bound to any particular theory, in an effort to reduce the size of MPG, potentially allow for better inosine access to the catalytic domain, and potentially improve the solubility of the fusion complex, the N-terminus of MPG was truncated.
# In this experiment, both N-terminus and C-terminus fusions of hMPG to ABE8.20m (SEQ ID NO:57) were tested with a truncated variant of hMPG (thMPG) (SEQ ID NO:85). Four different target nucleic acids were tested, which were: Site 1: […] (SEQ ID NO:131), Site 2: […] (SEQ ID NO:132), Site 3: […] (SEQ ID NO:133), and Site 4: […] (SEQ ID NO:134).
molecule,measurement,setting,value
"ABE7.10: adenine base editor, unfused ABE7.10 having amino acid sequence of SEQ ID NO:55",guanine mutation,[1],10-20%
same,guanine mutation,[2],10-20%
same,guanine transition of targeted adenines,[3],10-20%
"nCas9(D10A)-SunTag: Cas9 nickase (D10A) fused to SunTag, SEQ ID NO:136",A to C or T editing,[4],increase in A to C or T editing compared to expression of nCas9(D10A) without SunTag
B1,"adenine conversion to C or T activity, truncated vs full-length MPG",[5],"no observed decrease in activity and, in some cases, there was an observed increase in adenine conversion to C or T"
